Laboratory results published in patent US20230201240A1, “TREATMENT OF ADVANCED METASTATIC CANCER” (Can-Fite Biopharma Ltd., priority 2021, published 2023).
“Also recorded” adds a separate entry of the source. Like-named read-outs stand apart in the source and are kept apart here.

Columns and labels:
[1] = test system: HCC; settings: syngeneic orthotopic and xenograft models; cited from earlier work
[2] = test system: advanced HCC and CPB cirrhosis; assay: Phase II randomized, double-blind, placebo-controlled study of namodenoson in advanced HCC with CPB cirrhosis (NCT02128958); assay type: in vivo, human
Source text: The diagnosis of HCC in subjects without underlying cirrhosis at the time of diagnosis required cytology and/or histology; for subjects with underlying cirrhosis at the time of diagnosis, HCC diagnosis was established according to the American Association for the Study of Liver Diseases practice guidelines algorithm [Marrero J. A., et al., Hepatology. 2018; 68:723-750]. For subjects who had tolerated sorafenib, ≥3 weeks of prior treatment was required, terminating at ≥2 weeks before study entry. Inclusion criteria included: ECOG PS≤2; having CPB cirrhosis (i.e., CP score 7-9); aspartate aminotransferase (AST) and alanine aminotransferase (ALT) levels ≤5 times the upper limit of normal (ULN); total bilirubin, ≤3.0 mg/dL; serum albumin, ≥2.8 g/dL; prothrombin time (PT), ≤6 s longer than control; serum creatinine, ≤2.0 mg/dL; absolute neutrophil count, […]; and platelet count, […]. Exclusion criteria included: the presence of hepatic encephalopathy; and gastrointestinal hemorrhage requiring transfusion occurring within the past 4 weeks.
This was a multicenter, randomized, double-blind, placebo-controlled clinical trial (ClinicalTrials.gov identifier NCT02128958). The trial was conducted at 15 sites in Israel, Europe, and the United States. Subjects were enrolled by the participating centers and were randomly assigned 2:1, using a central randomization schedule generated by an independent biostatistician with no stratification prior to randomization. Patients were randomized to either namodenoson (Cl-IB-MECA) 25 mg or matching placebo, administered orally every 12 hours until discontinuation due to intolerance, withdrawal of consent, or death. Though treatment was administered in a continuous manner, the treatment period was divided into 4-week cycles for the purpose of data recording. No crossover was initially allowed; however, by protocol amendment, patients that continued with blinded treatment were offered namodenoson (25 mg twice daily) upon unblinding of the treatment assignments. All study site personnel were blinded to patients' treatment throughout the study period. The study was approved by all relevant national regulatory authorities and local Ethics Committees/Institutional Review Boards. The study was conducted in accordance with the Declaration of Helsinki, and written informed consent was obtained from all the patients.
The primary endpoint of the study was overall survival (OS). Secondary endpoints were progression-free survival (PFS), overall response rate (ORR), disease control rate (DCR), and safety. […] 2019, 70:1262-1277]. Disease response assessment was evaluated locally by 2 independent blinded radiologists using Response Evaluation Criteria in Solid Tumors (RECIST) version 1.1 [Eisenhauer E. A., et al. Eur. J. Cancer. 2009; 45:228-247]. Tumor status was assessed at baseline and every 8 weeks thereafter by computed tomography scan or magnetic resonance imaging. Safety was monitored through assessments of AEs using the US National Cancer Institute's Common Terminology Criteria for Adverse Events (CTCAE) v4.03. Changes from baseline in vital signs, clinical laboratory parameters, electrocardiograms, physical examinations, and ECOG PS were also assessed. AFP levels were assessed at baseline and every 4 weeks thereafter, as were laboratory parameters associated with hepatic dysfunction and cirrhosis, such as serum ALT, AST, bilirubin, and albumin levels, PT, and international normalized ratio. ALBI scores were calculated from the albumin and bilirubin levels, as previously described [Johnson P. J., et al. J. Clin. Oncol. 2015; 33:550-558].
Power calculation determined that 75 deaths, assuming a hazard ratio of 0.5, would provide 80% power for the log-rank test at a significance level of 0.05. Primary efficacy analyses were performed on the ITT population. Descriptive statistics were used to summarize patient/tumor characteristics and safety. […]

[3] = test system: advanced unresectable HCC; settings: cited from earlier work
[4] = 9 patients with Child-Pugh Score 9
[5] = 34 namodenoson-treated patients with post-baseline assessment
[6] = n = 34 with at least 1 post-baseline assessment
[7] = patients with Child-Pugh score 7
[8] = patients with Child-Pugh score 8

In the case of `CNC(=O)[C@H]1O[C@@H](n2cnc3c(NCc4cccc(I)c4)nc(Cl)nc32)[C@H](O)[C@@H]1O` [namodenoson, 2-chloro-N^6-(3-iodobenzyl)-adenosine-5′-N-methyluronamide], the “effect towards HCC” value [1] is given as “induces an apoptotic effect”, the treatment-related deaths ([2]; 25 mg BID oral) is given as “No treatment-related deaths” and the “median OS” value [2, 4] is given as 3.5 months. The “median PFS” value [2, 4] was 2.2 months, the “PR achieved, number of patients” value [2, 5] was 3 patients and the “PR achieved, share of patients” value [2, 5] was 9%. The “patients who experienced CR” value [2, 5] was “one patient”, the “OS HR vs placebo” value ([2]; Child-Pugh score 7, 95% CI 0.45-1.43, p=0.46) was 0.81 and the “PFS HR vs placebo” value ([2]; Child-Pugh score 7, 95% CI 0.51-1.55, p=0.67) was 0.89. For the same compound, the “PFS HR vs placebo” value ([2]; Child-Pugh score 8, 95% CI 0.23-2.17, p=0.53) was 0.71, the “OS HR vs placebo” value ([2]; Child-Pugh score 8, 95% CI 0.28-2.77, p=0.83) was 0.88 and the “survival of single patient in Open Label Extension” value ([2]; advanced metastatic HCC, CPB7, 25 mg orally twice a day) was “survived five years”. The “response of single patient in Open Label Extension” value ([2]; advanced metastatic HCC, CPB7, 25 mg orally twice a day for 5 years) was “Complete Response (CR); also recorded: complete remission of the cancer”, the “mean serum albumin levels and albumin-bilirubin (ALBI) scores” value ([2]; in vivo) was “did not change significantly” and the “withdrawals and dose reductions attributable to namodenoson” value ([2]; in vivo, po) was “no patients withdrew from the study and no dose reductions were attributable to namodenoson”. For the same compound, the “Best observed response (RECIST 1.1): CR” value [2, 6] was 1 (2.94%) n (%), the “Best observed response (RECIST 1.1): PD” value [2, 6] was 14 (41.2%) n (%) and the “Best observed response (RECIST 1.1): PR” value [2, 6] was 3 (8.8%) n (%). For the same compound, the “Best observed response (RECIST 1.1): SD” value [2, 6] was 17 (50.0%) n (%), the “12-month OS rate” value ([2]; p=0.028 vs placebo, FIG. 1: patients with Child-Pugh Score 7, 25 mg BID) was 44% and the “median OS” value [2, 7] was 6.9 months. The “median PFS” value [2, 7] was 3.5 months, the OS [2, 8] was 3.3 months and the PFS [2, 8] was 2.1 months. For the same compound, the “clinical benefits of treatment (scan of chest, abdomen, pelvis)” value ([2]; single patient, advanced metastatic HCC, CPB7, 25 mg orally twice a day) was “disappearance of ascites, normal liver function, and the disappearance of peritoneal carcinomatosis”, the “progression-free survival (PFS) superiority over placebo” value ([2]; whole study population) was “no superiority” and the “median OS” value ([2]; whole study population, 25 mg BID oral) was 4.1 months. For the same compound, the “OS hazard ratio [HR] vs placebo” value ([2]; whole study population, 95% CI 0.49-1.38, p=0.46) was 0.82, the “Median overall survival (OS)” value ([3]; CPB patients (28%)) was 8.1 months and the safety and tolerability ([3]; in vivo) was “safe and well-tolerated”. The “Median overall survival (OS)” value ([3]; whole study population, 67% failed prior sorafenib) was 7.8 months.
